In US20220144823A1, “PYRAZOLOPYRIDINE DERIVATIVES AS INHIBITORS OF PASK” (Galapagos NV, priority 2019, published 2022):

Test system: diabetic non human primates (NHPs) under a high-calorie diet (HCD)
Experiment: Diabetic monkey model;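 also: male obese diabetic cynomolgus monkeys fed a high-fat, high-fructose diet, randomized into 4 groups, dosed with test compound for 8 weeks, then a 4-week washout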
Conditions: for Oral glucose tolerance test (glucose AUC): fasted animals; for Hepatic echogenicity (H/R ratio): Hepatic (right lobe)/Renal cortex (right kidney) ratio, ultrasound
[1] = week 1, treatment, metformin 25 mg/kg b.i.d., Cpd 18 30 mg/kg q.d., p.o.
[2] = week 2, treatment, metformin 25 mg/kg b.i.d., Cpd 18 30 mg/kg q.d., p.o.
[3] = week 3, treatment, metformin 25 mg/kg b.i.d., Cpd 18 30 mg/kg q.d., p.o.
[4] = week 4, treatment, metformin 25 mg/kg b.i.d., Cpd 18 30 mg/kg q.d., p.o.
[5] = week 9, washout without treatment
[6] = week 10, washout without treatment
[7] = week 11, washout without treatment
[8] = week 12, washout without treatment

Protocol: The aim of this assay is to determine the effect of a test compound on lipid metabolism and glucose handling in diabetic non human primates (NHPs) under a high-calorie diet (HCD) consisting of high-fat and high-fructose.
Male obese diabetic cynomolgus monkeys were selected based on their body weights, glucose, insulin levels, and blood lipid parameters. The inclusion criteria were the following: age ≤22 years; fasted plasma glucose between 120 and 300 mg/dL; triglycerides >125 mg/dL, and insulin >75 mIU/mL.
The animals are maintained at 20-23° C. and 40-70% humidity on a 12 h light/dark cycle (7 AM-7 PM). Water is provided ad libitum and the animals are fed twice daily with the high-calorie diet (HCD) enriched with seasonal fruits or vegetables.
After the baseline period, animals were randomized into 4 groups according to body weight, as well as their blood glucose and lipid parameters.
The following parameters were measured once per week during the 8 weeks of treatment and also during the 4 weeks of washout: • body weight • food consumption • blood chemistry (fasted blood glucose, plasma triglycerides, plasma total cholesterol, low density lipoproteins (LDL), and high density lipoproteins (HDL))
Oral glucose tolerance was measured in fasted animals before treatment initiation (baseline), at the end of the treatment period (week 8), and after 4 weeks of washout (week 12).

Cc1nn(C(C)C)c(C)c1-c1cnn2ccc(-c3cc(C(=O)O)co3)cc12 [Cpd 18, 5-[3-(1-isopropyl-3,5-dimethyl-pyrazol-4-yl)pyrazolo[1,5-a]pyridin-5-yl]furan-3-carboxylic acid]
Total cholesterol change (% change from baseline) (Group 3, week 9, washout): −31.5 % change from baseline
Triglyceride change (% change from baseline) (Group 3, week 9, washout): −49.3 % change from baseline
HDL change (% change from baseline) (Group 3, week 10, washout): 8.0%
LDL change (% change from baseline) (Group 3, week 10, washout): −13.5%
Total cholesterol change (% change from baseline) (Group 3, week 10, washout): −8.2 % change from baseline
Triglyceride change (% change from baseline) (Group 3, week 10, washout): −45.9 % change from baseline
HDL change (% change from baseline) (Group 3, week 11, washout): 21.9%
LDL change (% change from baseline) (Group 3, week 11, washout): 10.2%
Total cholesterol change (% change from baseline) (Group 3, week 11, washout): 15.5 % change from baseline
Triglyceride change (% change from baseline) (Group 3, week 11, washout): −19.9 % change from baseline
HDL change (% change from baseline) (Group 3, week 12, washout): 23.9%
LDL change (% change from baseline) (Group 3, week 12, washout): 46.2%
Total cholesterol change (% change from baseline) (Group 3, week 12, washout): 48.7 % change from baseline
Triglyceride change (% change from baseline) (Group 3, week 12, washout): 18.8 % change from baseline
HDL change (% change from baseline) (Group 4, week 1, treatment): 2.1%
LDL change (% change from baseline) (Group 4, week 1, treatment): 67.1%
Total cholesterol change (% change from baseline) (Group 4, week 1, treatment): 50.9 % change from baseline
Triglyceride change (% change from baseline) (Group 4, week 1, treatment): −31.7 % change from baseline
HDL change (% change from baseline) (Group 4, week 2, treatment): −13.1%
LDL change (% change from baseline) (Group 4, week 2, treatment): 46.7%
Total cholesterol change (% change from baseline) (Group 4, week 2, treatment): 30.3 % change from baseline
Triglyceride change (% change from baseline) (Group 4, week 2, treatment): −30.0 % change from baseline
HDL change (% change from baseline) (Group 4, week 3, treatment): −14.9%
LDL change (% change from baseline) (Group 4, week 3, treatment): 33.6%
Total cholesterol change (% change from baseline) (Group 4, week 3, treatment): 20.9 % change from baseline
Triglyceride change (% change from baseline) (Group 4, week 3, treatment): −28.2 % change from baseline
HDL change (% change from baseline) (Group 4, week 4, treatment): −16.0%
LDL change (% change from baseline) (Group 4, week 4, treatment): −21.9%
Total cholesterol change (% change from baseline) (Group 4, week 4, treatment): −22.6 % change from baseline
Triglyceride change (% change from baseline) (Group 4, week 4, treatment): −48.3 % change from baseline
HDL change (% change from baseline) (Group 4, week 5, treatment): −6.9%
LDL change (% change from baseline) (Group 4, week 5, treatment): 0.0%
Total cholesterol change (% change from baseline) (Group 4, week 5, treatment): −7.8 % change from baseline
Triglyceride change (% change from baseline) (Group 4, week 5, treatment): −52.3 % change from baseline
HDL change (% change from baseline) (Group 4, week 6, treatment): 0.3%
LDL change (% change from baseline) (Group 4, week 6, treatment): 2.1%
Total cholesterol change (% change from baseline) (Group 4, week 6, treatment): −2.6 % change from baseline
Triglyceride change (% change from baseline) (Group 4, week 6, treatment): −50.8 % change from baseline
HDL change (% change from baseline) (Group 4, week 7, treatment): 0.9%
LDL change (% change from baseline) (Group 4, week 7, treatment): −38.5%
Total cholesterol change (% change from baseline) (Group 4, week 7, treatment): −32.9 % change from baseline
Triglyceride change (% change from baseline) (Group 4, week 7, treatment): −63.2 % change from baseline
HDL change (% change from baseline) (Group 4, week 8, treatment): 8.7%
LDL change (% change from baseline) (Group 4, week 8, treatment): −32.5%
Total cholesterol change (% change from baseline) (Group 4, week 8, treatment): −26.1 % change from baseline
Triglyceride change (% change from baseline) (Group 4, week 8, treatment): −56.1 % change from baseline
HDL change (% change from baseline) (Group 4, week 9, washout): 18.9%
LDL change (% change from baseline) (Group 4, week 9, washout): −20.0%
Total cholesterol change (% change from baseline) (Group 4, week 9, washout): −15.5 % change from baseline
Triglyceride change (% change from baseline) (Group 4, week 9, washout): −60.2 % change from baseline
HDL change (% change from baseline) (Group 4, week 10, washout): 6.0%
LDL change (% change from baseline) (Group 4, week 10, washout): 29.3%
Total cholesterol change (% change from baseline) (Group 4, week 10, washout): 10.9 % change from baseline
Triglyceride change (% change from baseline) (Group 4, week 10, washout): −58.1 % change from baseline
HDL change (% change from baseline) (Group 4, week 11, washout): 11.0%
LDL change (% change from baseline) (Group 4, week 11, washout): 45.1%
Total cholesterol change (% change from baseline) (Group 4, week 11, washout): 28.5 % change from baseline
Triglyceride change (% change from baseline) (Group 4, week 11, washout): −41.4 % change from baseline
HDL change (% change from baseline) (Group 4, week 12, washout): 12.0%
LDL change (% change from baseline) (Group 4, week 12, washout): 87.5%
Total cholesterol change (% change from baseline) (Group 4, week 12, washout): 58.3 % change from baseline
Triglyceride change (% change from baseline) (Group 4, week 12, washout): −65.4 % change from baseline
Oral glucose tolerance test (glucose AUC) (week 0, baseline (before treatment initiation)): 2371 mmol·min/L
Bodyweight change (% change from baseline) [1]: 0.4%
HbA1c change (% change from baseline) [1]: −6.3%
Bodyweight change (% change from baseline) [2]: −1.9%
HbA1c change (% change from baseline) [2]: −9.4%
Bodyweight change (% change from baseline) [3]: −3.8%
HbA1c change (% change from baseline) [3]: −17.2%
Bodyweight change (% change from baseline) [4]: −5.6%
HbA1c change (% change from baseline) [4]: −24.1%
Oral glucose tolerance test (glucose AUC) (week 8, end of treatment period): 2307 mmol·min/L
Bodyweight change (% change from baseline) [5]: −13.6%
HbA1c change (% change from baseline) [5]: −30.7%
Hepatic echogenicity (H/R ratio) (week 9, washout): 1.03
Bodyweight change (% change from baseline) [6]: −14.5%
HbA1c change (% change from baseline) [6]: −25.6%
Bodyweight change (% change from baseline) [7]: −14.3%
HbA1c change (% change from baseline) [7]: −21.3%
Oral glucose tolerance test (glucose AUC) (week 12, after 4 weeks of washout): 2291 mmol·min/L
Bodyweight change (% change from baseline) [8]: −14.8%
HbA1c change (% change from baseline) [8]: −27.9%
Hepatic echogenicity (H/R ratio) (week −3, baseline): 1.13
